Reference: patent US9968716B2, “Drug-eluting stent graft” (Ono Pharmaceutical Co., Ltd., priority 2013, dated 2018)
Marks after values point to notes of the source that are not given here.

Experiments:
[1] = test system: normal human aortic smooth muscle cells (AoSMCs); experiment: Promotion of cAMP production in AoSMC culture; format: cell-based; details: Ao-SMCs, 72 hours of culture
Protocol: Cells (produceed by Lonza, purchased from Takara Bio Inc., product name: normal human aortic smooth muscle cells (AoSMCs), product code: CC-2571) were cultured in a medium (produced by Lonza, purchased from Takara Bio Inc., product name: smooth muscle cell medium kit-2 (5% FBS), SmGM™-2 Bullet Kit™, product code: CC-3182) for 72 hours. To the culture medium at the number of cells of 4.0×10^5 cells which was rendered to be serum free, Compound 1 dissolved in DMSO was added so as to be 100 nM or 1000 nM. As a control, the same amount of DMSO was added to the culture medium. After 72 hours of culture, the supernatant was recovered and cAMP in the culture medium was measured with the cAMP EIA kit Code. 581001.

NHDFs and HUVECs = experiment: Induction of internal regenerating factors in co-culture with NHDFs and HUVECs; format: cell-based, human

SMILES: O=C(O)COc1cccc2c1CCC=C2CCO/N=C(\c1ccccc1)c1cccnc1 [Compound 1, (E)-[5-[2-[1-phenyl-1-(3-pyridyl)methylidenaminoxy]ethyl]-7,8-dihydronaphthalen-1-yloxy]acetic acid]
- cAMP in the culture medium, Average ([1]; 100 nM): 50.6* nM
- cAMP in the culture medium, Average ([1]; 1000 nM): 105.4* nM
- induction of internal regenerating factors (HGF, VEGF, EGF, IGF-1, SDF-1, G-CSF) (NHDFs and HUVECs): induce
